Tests used:
Test in all cases: KINOMEscan competition binding
Details in all cases: compound 10.0 µM
RIPK2 (human) = RIPK2 (human) (UniProt O43353)
CDC42BPG (human) = CDC42BPG (human) (UniProt Q6DT37)
MST4 (human) = MST4 (human) (UniProt Q9P289)
STK36 (human) = STK36 (human) (UniProt Q9NRP7)
FGR (human) = FGR (human) (UniProt P09769)
ACVRL1 (human) = ACVRL1 (human) (UniProt P37023)
IGF1R (human) = IGF1R (human) (UniProt P08069)
AKT1 (human) = AKT1 (human) (UniProt P31749)
ACVR2A (human) = ACVR2A (human) (UniProt P27037)
WEE1 (human) = WEE1 (human) (UniProt P30291)
CSK (human) = CSK (human) (UniProt P41240)
BRSK2 (human) = BRSK2 (human) (UniProt Q8IWQ3)
[1] = target: JAK1 JH2 pseudokinase (human) (UniProt P23458)
INSR (human) = INSR (human) (UniProt P06213)
PDGFRA (human) = PDGFRA (human) (UniProt P16234)
MAP2K4 (human) = MAP2K4 (human) (UniProt P45985)
TLK1 (human) = TLK1 (human) (UniProt Q9UKI8)
ERBB4 (human) = ERBB4 (human) (UniProt Q15303)
PIK3C2B (human) = PIK3C2B (human) (UniProt O00750)
NEK7 (human) = NEK7 (human) (UniProt Q8TDX7)
PAK7 (human) = PAK7 (human) (UniProt Q9P286)
[2] = target: JAK3 JH1 catalytic (human) (UniProt P52333)
TEK (human) = TEK (human) (UniProt Q02763)
TNIK (human) = TNIK (human) (UniProt Q9UKE5)
STK3 (human) = STK3 (human) (UniProt Q13188)
PRKG2 (human) = PRKG2 (human) (UniProt Q13237)
MAPK15 (human) = MAPK15 (human) (UniProt Q8TD08)
ZAP70 (human) = ZAP70 (human) (UniProt P43403)
MAPK6 (human) = MAPK6 (human) (UniProt Q16659)
IKBKE (human) = IKBKE (human) (UniProt Q14164)
PRKCD (human) = PRKCD (human) (UniProt Q05655)
RAF1 (human) = RAF1 (human) (UniProt P04049)
PRKCQ (human) = PRKCQ (human) (UniProt Q04759)
[3] = target: JAK2 JH1 catalytic (human) (UniProt O60674)
MELK (human) = MELK (human) (UniProt Q14680)
NTRK1 (human) = NTRK1 (human) (UniProt P04629)
PHKG1 (human) = PHKG1 (human) (UniProt Q16816)
NEK6 (human) = NEK6 (human) (UniProt Q9HC98)
NUAK1 (human) = NUAK1 (human) (UniProt O60285)
PIK3CB (human) = PIK3CB (human) (UniProt P42338)

BRSK2 (human), sequence (Q8IWQ3 whole entry, looked up): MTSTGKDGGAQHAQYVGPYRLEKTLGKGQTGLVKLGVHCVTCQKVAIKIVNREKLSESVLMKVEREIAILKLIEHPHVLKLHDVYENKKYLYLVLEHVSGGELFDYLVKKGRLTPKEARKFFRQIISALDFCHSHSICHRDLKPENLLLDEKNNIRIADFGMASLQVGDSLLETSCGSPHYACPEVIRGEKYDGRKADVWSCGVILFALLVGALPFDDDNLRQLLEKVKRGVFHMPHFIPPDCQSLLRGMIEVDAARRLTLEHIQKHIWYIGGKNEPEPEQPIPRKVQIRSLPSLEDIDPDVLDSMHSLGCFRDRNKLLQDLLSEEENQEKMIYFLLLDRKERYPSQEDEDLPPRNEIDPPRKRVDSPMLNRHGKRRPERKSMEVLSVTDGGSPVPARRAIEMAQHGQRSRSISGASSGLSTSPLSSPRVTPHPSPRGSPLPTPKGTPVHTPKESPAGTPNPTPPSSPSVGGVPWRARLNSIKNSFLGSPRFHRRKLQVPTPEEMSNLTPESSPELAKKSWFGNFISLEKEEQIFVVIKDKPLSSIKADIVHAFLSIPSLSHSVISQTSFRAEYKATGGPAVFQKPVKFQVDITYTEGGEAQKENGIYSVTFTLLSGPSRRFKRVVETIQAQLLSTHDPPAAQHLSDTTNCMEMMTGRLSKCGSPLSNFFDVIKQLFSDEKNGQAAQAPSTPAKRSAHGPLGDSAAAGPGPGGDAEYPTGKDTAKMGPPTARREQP
PRKG2 (human), sequence (Q13237 whole entry, looked up): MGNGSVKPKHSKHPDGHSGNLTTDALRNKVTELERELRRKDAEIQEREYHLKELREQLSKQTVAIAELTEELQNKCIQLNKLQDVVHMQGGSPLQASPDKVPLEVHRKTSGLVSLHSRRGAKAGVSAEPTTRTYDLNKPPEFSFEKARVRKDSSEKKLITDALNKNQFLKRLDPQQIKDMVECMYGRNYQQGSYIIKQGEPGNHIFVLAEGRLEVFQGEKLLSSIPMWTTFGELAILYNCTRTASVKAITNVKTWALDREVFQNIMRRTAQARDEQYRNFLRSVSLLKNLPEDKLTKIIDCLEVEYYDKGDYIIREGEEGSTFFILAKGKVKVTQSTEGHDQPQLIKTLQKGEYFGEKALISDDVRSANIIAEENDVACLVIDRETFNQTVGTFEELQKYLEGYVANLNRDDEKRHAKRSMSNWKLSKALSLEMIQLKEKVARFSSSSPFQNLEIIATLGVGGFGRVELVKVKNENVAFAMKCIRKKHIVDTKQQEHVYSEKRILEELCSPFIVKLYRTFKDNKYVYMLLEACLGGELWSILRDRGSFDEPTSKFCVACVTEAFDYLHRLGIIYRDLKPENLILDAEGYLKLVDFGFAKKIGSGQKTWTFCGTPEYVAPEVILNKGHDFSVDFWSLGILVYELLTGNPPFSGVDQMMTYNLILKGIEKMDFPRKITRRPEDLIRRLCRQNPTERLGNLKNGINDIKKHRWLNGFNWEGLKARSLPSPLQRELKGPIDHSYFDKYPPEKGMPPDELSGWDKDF
TEK (human), sequence (Q02763 whole entry, looked up): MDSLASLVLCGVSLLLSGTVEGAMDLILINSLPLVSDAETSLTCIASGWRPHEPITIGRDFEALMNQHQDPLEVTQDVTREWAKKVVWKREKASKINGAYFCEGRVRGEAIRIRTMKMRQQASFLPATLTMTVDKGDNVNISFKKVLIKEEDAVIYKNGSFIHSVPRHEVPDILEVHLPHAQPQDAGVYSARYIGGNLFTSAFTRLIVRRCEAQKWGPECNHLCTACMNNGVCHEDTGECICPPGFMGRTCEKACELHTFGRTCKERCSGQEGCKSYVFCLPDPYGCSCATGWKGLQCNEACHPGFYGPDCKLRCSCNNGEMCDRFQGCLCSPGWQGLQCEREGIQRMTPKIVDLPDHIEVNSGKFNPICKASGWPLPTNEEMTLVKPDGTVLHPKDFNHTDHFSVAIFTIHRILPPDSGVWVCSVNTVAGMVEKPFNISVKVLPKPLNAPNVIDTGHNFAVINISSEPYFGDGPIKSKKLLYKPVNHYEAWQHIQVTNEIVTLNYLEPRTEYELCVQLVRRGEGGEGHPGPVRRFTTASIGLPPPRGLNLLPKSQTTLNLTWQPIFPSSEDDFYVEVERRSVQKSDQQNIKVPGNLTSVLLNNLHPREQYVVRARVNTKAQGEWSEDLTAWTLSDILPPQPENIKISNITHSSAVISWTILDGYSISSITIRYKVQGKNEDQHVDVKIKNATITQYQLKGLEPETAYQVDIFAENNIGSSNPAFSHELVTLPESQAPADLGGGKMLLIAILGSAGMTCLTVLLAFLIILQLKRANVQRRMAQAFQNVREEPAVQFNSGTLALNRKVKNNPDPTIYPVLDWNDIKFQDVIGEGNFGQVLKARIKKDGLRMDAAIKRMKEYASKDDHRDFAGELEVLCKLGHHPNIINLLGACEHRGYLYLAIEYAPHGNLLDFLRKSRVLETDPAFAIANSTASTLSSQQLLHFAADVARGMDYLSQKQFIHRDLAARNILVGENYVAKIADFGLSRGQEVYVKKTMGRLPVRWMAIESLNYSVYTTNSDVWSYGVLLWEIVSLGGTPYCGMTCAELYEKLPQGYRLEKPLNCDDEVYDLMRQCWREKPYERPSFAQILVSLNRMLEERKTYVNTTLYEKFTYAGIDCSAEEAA
MST4 (human), sequence (Q9P289 whole entry, looked up): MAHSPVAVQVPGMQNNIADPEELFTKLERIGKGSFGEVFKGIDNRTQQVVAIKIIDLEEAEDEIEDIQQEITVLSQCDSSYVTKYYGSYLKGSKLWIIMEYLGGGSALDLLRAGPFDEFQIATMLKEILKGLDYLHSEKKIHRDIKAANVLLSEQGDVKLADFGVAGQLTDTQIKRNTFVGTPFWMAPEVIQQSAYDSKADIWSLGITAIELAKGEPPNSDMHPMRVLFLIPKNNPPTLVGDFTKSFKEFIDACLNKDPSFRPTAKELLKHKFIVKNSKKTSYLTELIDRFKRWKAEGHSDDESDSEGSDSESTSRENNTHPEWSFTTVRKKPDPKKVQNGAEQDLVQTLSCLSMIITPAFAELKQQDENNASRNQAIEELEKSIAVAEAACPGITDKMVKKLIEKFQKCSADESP
IGF1R (human), sequence (P08069 whole entry, looked up): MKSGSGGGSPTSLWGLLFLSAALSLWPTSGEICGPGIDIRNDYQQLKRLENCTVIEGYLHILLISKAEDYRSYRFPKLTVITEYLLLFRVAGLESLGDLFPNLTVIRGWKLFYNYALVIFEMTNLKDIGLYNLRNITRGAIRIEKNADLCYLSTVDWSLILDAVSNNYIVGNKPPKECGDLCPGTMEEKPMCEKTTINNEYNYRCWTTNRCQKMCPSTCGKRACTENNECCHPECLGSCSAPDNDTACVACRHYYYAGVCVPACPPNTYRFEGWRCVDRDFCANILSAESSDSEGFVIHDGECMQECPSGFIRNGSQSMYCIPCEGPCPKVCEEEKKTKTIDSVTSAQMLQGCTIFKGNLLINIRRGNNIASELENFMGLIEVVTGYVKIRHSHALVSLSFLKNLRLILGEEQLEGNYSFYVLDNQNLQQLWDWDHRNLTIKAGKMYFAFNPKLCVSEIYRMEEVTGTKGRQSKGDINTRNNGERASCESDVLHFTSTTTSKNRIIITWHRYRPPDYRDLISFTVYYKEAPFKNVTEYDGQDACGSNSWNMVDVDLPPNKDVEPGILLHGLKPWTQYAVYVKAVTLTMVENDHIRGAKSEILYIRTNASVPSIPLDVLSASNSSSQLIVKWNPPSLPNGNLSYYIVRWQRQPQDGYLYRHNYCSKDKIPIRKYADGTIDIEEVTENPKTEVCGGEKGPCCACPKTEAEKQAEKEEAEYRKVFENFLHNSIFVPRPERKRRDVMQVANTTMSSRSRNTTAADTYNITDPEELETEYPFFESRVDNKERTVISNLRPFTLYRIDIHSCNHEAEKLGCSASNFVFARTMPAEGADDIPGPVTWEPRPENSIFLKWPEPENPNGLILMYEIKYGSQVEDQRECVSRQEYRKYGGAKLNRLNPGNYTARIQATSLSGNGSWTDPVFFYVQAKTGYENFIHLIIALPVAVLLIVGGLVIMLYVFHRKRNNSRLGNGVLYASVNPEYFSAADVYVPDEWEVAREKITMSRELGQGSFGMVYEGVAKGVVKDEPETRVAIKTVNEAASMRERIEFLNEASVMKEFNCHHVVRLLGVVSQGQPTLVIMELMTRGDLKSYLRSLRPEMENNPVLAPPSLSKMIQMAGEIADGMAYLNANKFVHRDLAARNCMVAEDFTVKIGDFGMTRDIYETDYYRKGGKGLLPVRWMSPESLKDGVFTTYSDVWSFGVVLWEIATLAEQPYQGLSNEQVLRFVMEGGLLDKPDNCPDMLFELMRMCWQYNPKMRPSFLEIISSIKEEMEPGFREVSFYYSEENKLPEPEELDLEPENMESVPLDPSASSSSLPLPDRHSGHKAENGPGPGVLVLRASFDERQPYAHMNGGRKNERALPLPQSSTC
RAF1 (human), sequence (P04049 whole entry, looked up): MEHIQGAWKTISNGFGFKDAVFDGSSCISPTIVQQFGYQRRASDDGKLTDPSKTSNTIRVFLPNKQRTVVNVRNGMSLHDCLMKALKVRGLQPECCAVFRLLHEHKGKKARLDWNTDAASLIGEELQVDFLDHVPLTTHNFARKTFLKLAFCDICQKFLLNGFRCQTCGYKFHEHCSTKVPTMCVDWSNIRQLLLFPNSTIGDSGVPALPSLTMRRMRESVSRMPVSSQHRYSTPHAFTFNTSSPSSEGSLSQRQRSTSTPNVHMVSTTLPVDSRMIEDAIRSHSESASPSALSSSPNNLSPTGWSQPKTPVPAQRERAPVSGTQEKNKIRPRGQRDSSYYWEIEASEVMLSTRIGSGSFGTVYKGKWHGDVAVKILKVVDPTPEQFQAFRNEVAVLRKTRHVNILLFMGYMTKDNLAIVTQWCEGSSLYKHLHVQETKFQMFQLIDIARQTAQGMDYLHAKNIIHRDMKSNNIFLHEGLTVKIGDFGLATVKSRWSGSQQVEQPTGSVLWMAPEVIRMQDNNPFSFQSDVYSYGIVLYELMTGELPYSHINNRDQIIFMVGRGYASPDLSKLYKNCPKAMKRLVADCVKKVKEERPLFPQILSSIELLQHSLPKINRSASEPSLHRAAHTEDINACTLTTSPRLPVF

**Q.** What does the source list for `O=C1Nc2ccc(I)cc2/C1=C/c1cc(Br)c(O)c(Br)c1`?
**A.** kinase still bound, per cent of control (RIPK2 (human)): 38%; kinase still bound, per cent of control (CDC42BPG (human)): 91%; kinase still bound, per cent of control (MST4 (human)): 100%; kinase still bound, per cent of control (STK36 (human)): 14%; kinase still bound, per cent of control (FGR (human)): 86%; kinase still bound, per cent of control (ACVRL1 (human)): 100%; kinase still bound, per cent of control (IGF1R (human)): 97%; kinase still bound, per cent of control (AKT1 (human)): 100%; kinase still bound, per cent of control (ACVR2A (human)): 100%; kinase still bound, per cent of control (WEE1 (human)): 100%; kinase still bound, per cent of control (CSK (human)): 92%; kinase still bound, per cent of control (BRSK2 (human)): 100%; kinase still bound, per cent of control [1]: 0.55%; kinase still bound, per cent of control (INSR (human)): 100%; kinase still bound, per cent of control (PDGFRA (human)): 22%; kinase still bound, per cent of control (MAP2K4 (human)): 3.4%; kinase still bound, per cent of control (TLK1 (human)): 100%; kinase still bound, per cent of control (ERBB4 (human)): 50%; kinase still bound, per cent of control (PIK3C2B (human)): 10%; kinase still bound, per cent of control (NEK7 (human)): 100%; kinase still bound, per cent of control (PAK7 (human)): 87%; kinase still bound, per cent of control [2]: 14%; kinase still bound, per cent of control (TEK (human)): 100%; kinase still bound, per cent of control (TNIK (human)): 2.7%; kinase still bound, per cent of control (STK3 (human)): 3.3%; kinase still bound, per cent of control (PRKG2 (human)): 83%; kinase still bound, per cent of control (MAPK15 (human)): 61%; kinase still bound, per cent of control (ZAP70 (human)): 84%; kinase still bound, per cent of control (MAPK6 (human)): 100%; kinase still bound, per cent of control (IKBKE (human)): 86%; kinase still bound, per cent of control (PRKCD (human)): 70%; kinase still bound, per cent of control (RAF1 (human)): 0.65%; kinase still bound, per cent of control (PRKCQ (human)): 90%; kinase still bound, per cent of control [3]: 57%; kinase still bound, per cent of control (MELK (human)): 99%; kinase still bound, per cent of control (NTRK1 (human)): 82%; kinase still bound, per cent of control (PHKG1 (human)): 85%; kinase still bound, per cent of control (NEK6 (human)): 96%; kinase still bound, per cent of control (NUAK1 (human)): 100%; kinase still bound, per cent of control (PIK3CB (human)): 100%

From the kinase profiling compilation of Christmann-Franck et al. (2016)
